For 18 compounds, HC50, MIC and fold change (FC) results are on record in ChEMBL document CHEMBL5634090, “Design of phenothiazine-based cationic amphiphilic derivatives incorporating arginine residues: Potential membrane-active broad-spectrum antimicrobials combating pathogenic bacteria in vitro and in vivo” (Eur J Med Chem, 2023).

≈ marks a conversion by molar mass, not a printed value.

Series [1] is described as follows: Hemolytic activity in rabbit erythrocytes. Format: toxicity, cell-based, Oryctolagus cuniculus, Erythrocyte.
The subject of series [2] is Staphylococcus aureus. Put plainly: Antibacterial activity against Staphylococcus aureus ATCC 29213 by microbroth dilution assay. Format: functional. (Dilution methods test growth across graded concentrations, often in twofold steps.)
Series [3] deals with Staphylococcus aureus. In words: Antibacterial activity against methicillin resistant Staphylococcus aureus NCTC 10442 by microbroth dilution assay. Format: functional.
In series [4] the test system is Staphylococcus aureus. Put plainly: Antibacterial activity against methicillin resistant Staphylococcus aureus N315 by microbroth dilution assay. Format: functional.
In a further series the test system is Escherichia coli. Put plainly: Antibacterial activity against Escherichia coli ATCC 25922 by microbroth dilution assay. Format: functional.
Another series relates to Pseudomonas aeruginosa. In words: Antibacterial activity against Pseudomonas aeruginosa ATCC 9027 by microbroth dilution assay. The class given is functional.
The subject of series [5] is Klebsiella pneumoniae. Put plainly: Antibacterial activity against Klebsiella pneumoniae ATCC 14581 by microbroth dilution assay. The class given is functional.
Series [6] deals with Klebsiella pneumoniae. Put plainly: Antibacterial activity against Klebsiella pneumoniae ATCC 10031 by microbroth dilution assay. Format: functional.
The test system of series [7] is Staphylococcus aureus. In words: Induction of resistance development in Staphylococcus aureus ATCC 29213 assessed as fold increase in MIC treated over 20 serial passages by microdilution assay. The class given is functional.

Take `COc1ccc2c(c1)Nc1ccccc1S2`: the HC50 (commonly the concentration giving 50% haemolysis) in series [1] is above 200 µg/mL. The MIC in the series on Staphylococcus aureus [2], with Staphylococcus aureus [3], against Staphylococcus aureus [4] and in the series on Escherichia coli was above 50 µg/mL each time.

Turning to `CCCCCOc1ccc2c(c1)N(CCCCCCNC(=N)N)c1ccccc1S2`, the HC50 in series [1] is above 200 µg/mL. Further, the minimum inhibitory concentration (MIC) (as a rule, the lowest concentration found to suppress growth) against Staphylococcus aureus [2] was 1.56 µg/mL (≈ 3.66 µM); with Staphylococcus aureus [3], 1.56 µg/mL (≈ 3.66 µM); against Staphylococcus aureus [4], 1.56 µg/mL (≈ 3.66 µM); with Escherichia coli, above 50 µg/mL.

`CCCCCCCCCN1c2ccccc2Sc2ccc(OCC(=O)N[C@@H](CCCNC(=N)N)C(=O)N[C@@H](CCCNC(=N)N)C(=O)N[C@@H](CCCNC(=N)N)C(=O)OC)cc21`: the MIC was 12.5 µg/mL (≈ 14.2 µM) against Pseudomonas aeruginosa; 1.56 µg/mL (≈ 1.77 µM) with Staphylococcus aureus [2]; 12.5 µg/mL (≈ 14.2 µM) in the series on Klebsiella pneumoniae [5]; 12.5 µg/mL (≈ 14.2 µM) in the series with Klebsiella pneumoniae [6]; 1.56 µg/mL (≈ 1.77 µM) against Staphylococcus aureus [3]; 0.78 µg/mL (≈ 0.884 µM) in the series with Staphylococcus aureus [4]. This compound also returned an MIC against Escherichia coli of 3.12 µg/mL (≈ 3.54 µM). The HC50 in series [1] is above 200 µg/mL.

On to `CCCCCCCCCOc1ccc2c(c1)N(CCCCN)c1ccccc1S2`, for which the HC50 in [1] was above 200 µg/mL. The minimum inhibitory concentration (MIC) in the series with Staphylococcus aureus [2] was 3.12 µg/mL (≈ 7.57 µM); against Staphylococcus aureus [3], 3.12 µg/mL (≈ 7.57 µM); in the series on Staphylococcus aureus [4], 3.12 µg/mL (≈ 7.57 µM); in the series with Escherichia coli it was above 50 µg/mL.

In the case of `CCCCCOc1ccc2c(c1)N(CCCCCCCCN(CC)CC)c1ccccc1S2`, the HC50 in [1] was above 200 µg/mL. Also, the MIC with Staphylococcus aureus [2] was 3.12 µg/mL (≈ 6.67 µM); against Staphylococcus aureus [3], 3.12 µg/mL (≈ 6.67 µM); in the series on Staphylococcus aureus [4], 3.12 µg/mL (≈ 6.67 µM); with Escherichia coli, above 50 µg/mL.

As for `CCCCCOc1ccc2c(c1)N(CCCCCCN(CC)CC)c1ccccc1S2`, in series [1], the HC50 was above 200 µg/mL. Also, the MIC against Staphylococcus aureus [2] is 3.12 µg/mL (≈ 7.09 µM); against Staphylococcus aureus [3] it was 3.12 µg/mL (≈ 7.09 µM); against Staphylococcus aureus [4] it was 1.56 µg/mL (≈ 3.54 µM); in the series on Escherichia coli it was above 50 µg/mL.

Turning to `CCCCCCCCCN1c2ccccc2Sc2ccc(OCC(=O)N[C@@H](CCCNC(=N)N)C(=O)N[C@@H](CCCNC(=N)N)C(=O)OC)cc21`, the MIC in the series with Pseudomonas aeruginosa came to 50 µg/mL (≈ 68.9 µM); in the series with Staphylococcus aureus [2], 1.56 µg/mL (≈ 2.15 µM); in the series on Klebsiella pneumoniae [5], 6.25 µg/mL (≈ 8.61 µM); in the series with Klebsiella pneumoniae [6] it was 3.12 µg/mL (≈ 4.3 µM); in the series with Staphylococcus aureus [3], 1.56 µg/mL (≈ 2.15 µM); against Staphylococcus aureus [4], 1.56 µg/mL (≈ 2.15 µM). In the series with Escherichia coli, this compound yielded an MIC of 1.56 µg/mL (≈ 2.15 µM). Besides, in series [1], the HC50 is above 200 µg/mL.

Consider `CCCCCCCCCN1c2ccccc2Sc2ccc(OCC(=O)OCC)cc21`, for which, in series [1], the HC50 is above 200 µg/mL. The MIC with Staphylococcus aureus [2], against Staphylococcus aureus [3], against Staphylococcus aureus [4] and against Escherichia coli was above 50 µg/mL throughout.

In the series on Staphylococcus aureus [2], `CCn1cc(C(=O)O)c(=O)c2cc(F)c(N3CCNCC3)cc21` [NORFLOXACIN] returned an MIC of 1.56 µg/mL (≈ 4.89 µM). The fold change (FC) in the series with Staphylococcus aureus [7] turned out to be 1024.

As for `CCCCCCCOc1ccc2c(c1)N(CCCCN)c1ccccc1S2`, the HC50 in series [1] is above 200 µg/mL. Further, the MIC against Staphylococcus aureus [2] is 3.12 µg/mL (≈ 8.13 µM); with Staphylococcus aureus [3], 3.12 µg/mL (≈ 8.13 µM); with Staphylococcus aureus [4], 1.56 µg/mL (≈ 4.06 µM); in the series with Escherichia coli, above 50 µg/mL.

In turn, `CCCCCOc1ccc2c(c1)N(CCCCCCCCNC(=N)N)c1ccccc1S2` registered an HC50 in series [1] above 200 µg/mL. For the same compound, the MIC with Staphylococcus aureus [2] was 1.56 µg/mL (≈ 3.43 µM); against Staphylococcus aureus [3] it was 1.56 µg/mL (≈ 3.43 µM); with Staphylococcus aureus [4], 1.56 µg/mL (≈ 3.43 µM); against Escherichia coli, above 50 µg/mL.

For `CCCCCCCN1c2ccccc2Sc2ccc(OCC(=O)N[C@@H](CCCNC(=N)N)C(=O)N[C@@H](CCCNC(=N)N)C(=O)N[C@@H](CCCNC(=N)N)C(=O)OC)cc21`, the HC50 in series [1] was above 200 µg/mL. Besides, the MIC with Staphylococcus aureus [2] is 0.78 µg/mL (≈ 0.913 µM); against Staphylococcus aureus [3], 0.78 µg/mL (≈ 0.913 µM); in the series on Staphylococcus aureus [4], 0.78 µg/mL (≈ 0.913 µM); against Escherichia coli, 12.5 µg/mL (≈ 14.6 µM).

Take `CCCCCOc1ccc2c(c1)N(CCCCN)c1ccccc1S2`: the HC50 in series [1] is above 200 µg/mL. Moreover, the MIC with Staphylococcus aureus [2] was 3.12 µg/mL (≈ 8.76 µM); in the series on Staphylococcus aureus [3] it was 3.12 µg/mL (≈ 8.76 µM); in the series on Staphylococcus aureus [4] it was 3.12 µg/mL (≈ 8.76 µM); in the series with Escherichia coli, 25 µg/mL (≈ 70.1 µM).

Turning to `CCCCCCCN1c2ccccc2Sc2ccc(OCC(=O)N[C@@H](CCCNC(=N)N)C(=O)N[C@@H](CCCNC(=N)N)C(=O)OC)cc21`, the minimal inhibitory concentration (MIC) is above 50 µg/mL with Pseudomonas aeruginosa; 1.56 µg/mL (≈ 2.24 µM) in the series on Staphylococcus aureus [2]; 25 µg/mL (≈ 35.8 µM) with Klebsiella pneumoniae [5]; 25 µg/mL (≈ 35.8 µM) in the series on Klebsiella pneumoniae [6]; 1.56 µg/mL (≈ 2.24 µM) in the series with Staphylococcus aureus [3]; 1.56 µg/mL (≈ 2.24 µM) against Staphylococcus aureus [4]. Also, in the series on Escherichia coli, the minimal inhibitory concentration (MIC) worked out at 6.25 µg/mL (≈ 8.96 µM). In series [1], this compound returned an HC50 above 200 µg/mL.

Consider `CCCCCCCN1c2ccccc2Sc2ccc(OCC(=O)OCC)cc21`, for which the HC50 in [1] was above 200 µg/mL. In addition, the MIC against Staphylococcus aureus [2], in the series with Staphylococcus aureus [3], in the series on Staphylococcus aureus [4] and in the series on Escherichia coli was above 50 µg/mL in each case.

Regarding `CCCCCCCCCN1c2ccccc2Sc2ccc(OCC(=O)N[C@@H](CCCNC(=N)N)C(=O)N[C@@H](CCCNC(=N)N)C(N)=O)cc21`, the MIC against Pseudomonas aeruginosa is above 50 µg/mL; in the series on Staphylococcus aureus [2], 1.56 µg/mL (≈ 2.19 µM); against Klebsiella pneumoniae [5], 3.12 µg/mL (≈ 4.4 µM); against Klebsiella pneumoniae [6], 3.12 µg/mL (≈ 4.4 µM); against Staphylococcus aureus [3], 0.78 µg/mL (≈ 1.1 µM); in the series on Staphylococcus aureus [4], 1.56 µg/mL (≈ 2.19 µM). In the series with Escherichia coli, this compound gave an MIC of 1.56 µg/mL (≈ 2.19 µM). This compound also had an HC50 in series [1] above 200 µg/mL.

For `CCCCCN1c2ccccc2Sc2ccc(OCC(=O)N[C@@H](CCCNC(=N)N)C(=O)OC)cc21`, the concentration for 50% haemolysis (HC50) in [1] was above 200 µg/mL. The MIC is 12.5 µg/mL (≈ 24.3 µM) in the series on Staphylococcus aureus [2], 6.25 µg/mL (≈ 12.2 µM) against Staphylococcus aureus [3], 3.12 µg/mL (≈ 6.08 µM) in the series on Staphylococcus aureus [4] and above 50 µg/mL against Escherichia coli.

In [1], `CCCCCOc1ccc2c(c1)N(CCCCCCCCN)c1ccccc1S2` registered an HC50 above 200 µg/mL. Also, the MIC is 3.12 µg/mL (≈ 7.57 µM) with Staphylococcus aureus [2], 3.12 µg/mL (≈ 7.57 µM) in the series with Staphylococcus aureus [3], 3.12 µg/mL (≈ 7.57 µM) against Staphylococcus aureus [4] and above 50 µg/mL against Escherichia coli.
